{"source": "paper PMC3673949", "about": "“Small Molecule R1498 as a Well-Tolerated and Orally Active Kinase Inhibitor for Hepatocellular Carcinoma and Gastric Cancer Treatment via Targeting Angiogenesis and Mitosis Pathways” (PLoS ONE, 2013)", "key": {"CNE-2 xenograft": {"system": "CNE-2 xenograft", "details": "CNE-2, 100 mg/kg, every 10 days, intraperitoneal injection; for Final TGI%: day of study termination", "from_the_text": "The use and care of experimental animal was approved by Institutional Animal Care and Use Committee, Roche R&D Center (China). Tumor cells were inoculated into the right flank of BALB/C nu/nu female nude mice (5∼6 weeks, 16∼18 g, obtained from Sino-British SIPPR/BK Lab. Animal Ltd, Shanghai, China) at optimal density based on our in-house validation study. After the tumor was established and reached 100∼150 mm^3, the mice were randomized into ten mice per group and received treatment according to the schedule. The tumor growth was recorded three times a week with the measurement of length (L) and width (W) by caliper, and calculated as tumor volume (TV, mm^3) = 0.5*L*W*W (mm). […] The tumor regression of individual mouse was defined - the tumor volume at the end was less than the tumor volume when treatment was initiated."}, "[1]": {"system": "colorectal cancer, breast cancer, melanoma, and leukemia xenografts", "details": "150∼225 mg/kg once daily per oral; cited from earlier work"}, "MGC-803 xenograft": {"system": "MGC-803 xenograft", "test": "Xenograft efficacy study", "type": "in vivo, BALB/C nu/nu nude mice", "details": "MGC-803, 25 mg/kg twice a day per oral gavage"}, "Raf-1": {"system": "Raf-1", "details": "cited from earlier work"}, "[2]": {"system": "advanced and metastatic HCC", "details": "first line therapy; placebo group 7.9 months; cited from earlier work"}, "HCCLM3 xenograft": {"system": "HCCLM3 xenograft", "test": "Xenograft efficacy study", "type": "in vivo, BALB/C nu/nu nude mice", "details": "HCCLM3, 12.5 mg/kg twice a day per oral gavage"}, "SGC-7901 xenograft": {"system": "SGC-7901 xenograft", "test": "Xenograft efficacy study", "type": "in vivo, BALB/C nu/nu nude mice"}, "HGC-27 xenograft": {"system": "HGC-27 xenograft", "test": "Xenograft efficacy study", "type": "in vivo, BALB/C nu/nu nude mice", "details": "HGC-27, 25 mg/kg twice a day per oral gavage"}, "BEL-7404 xenograft": {"system": "BEL-7404 xenograft", "test": "Xenograft efficacy study", "type": "in vivo, BALB/C nu/nu nude mice", "details": "BEL-7404, 12.5 mg/kg twice a day per oral gavage"}, "BEL-7402 xenograft": {"system": "BEL-7402 xenograft", "test": "Xenograft efficacy study", "type": "in vivo, BALB/C nu/nu nude mice"}, "BGC-823 xenograft": {"system": "BGC-823 xenograft", "test": "Xenograft efficacy study", "type": "in vivo, BALB/C nu/nu nude mice", "details": "BGC-823, 25 mg/kg twice a day per oral gavage"}, "Ret": {"system": "Ret", "details": "cited from earlier work"}, "KIT": {"system": "KIT", "details": "cited from earlier work"}, "[3]": {"details": "day of study termination (Table S2)"}}, "note": "Read-outs that look alike come from different tables or passages of the source."}
{"smiles": "O=P1(N(CCCl)CCCl)NCCCO1", "note": "(centres unmarked) [Cyclophosphamide, cyclophosphamide]", "values": [{"measurement": "Final TGI%", "setting": "CNE-2 xenograft", "value": 58, "unit": "%"}, {"measurement": "Final TGI%", "setting": "CNE-2 xenograft; listed as cyclophosphamide", "value": 60, "unit": "%"}, {"measurement": "Body weight changes%", "setting": "CNE-2 xenograft; before vs after treatment", "value": -2.1, "unit": "%"}, {"measurement": "Tumor Regression", "setting": "CNE-2 xenograft; mice with regression/group", "value": "0/10"}]}
{"smiles": "Cc1cc(Nc2cc(N3CCN(C)CC3)nc(/C=C/c3ccccc3)n2)n[nH]1", "note": "[ENMD-2076]", "values": [{"measurement": "TGI%", "setting": "[1]", "value": "~90", "unit": "%"}]}
{"smiles": "CNC(=O)c1cc(Oc2ccc(NC(=O)Nc3ccc(Cl)c(C(F)(F)F)c3)cc2)ccn1", "note": "[Sorafenib, sorafenib, reference compound]", "values": [{"measurement": "Final TGI%", "setting": "MGC-803 xenograft; day of study termination", "value": 92, "unit": "%"}, {"measurement": "Body weight changes%", "setting": "MGC-803 xenograft; before vs after treatment", "value": -2.4, "unit": "%"}, {"measurement": "Tumor Regression", "setting": "MGC-803 xenograft; mice with regression/group", "value": "2/10"}, {"measurement": "IC50", "setting": "Raf-1", "value": "[…]"}, {"measurement": "median survival time", "setting": "[2]", "value": 10.7, "unit": "months"}, {"measurement": "Final TGI%", "setting": "HCCLM3 xenograft; day of study termination", "value": 71, "unit": "%"}, {"measurement": "Body weight changes%", "setting": "HCCLM3 xenograft; before vs after treatment", "value": 4.4, "unit": "%"}, {"measurement": "Tumor Regression", "setting": "HCCLM3 xenograft; mice with regression/group", "value": "0/10"}, {"measurement": "Final TGI%", "setting": "SGC-7901 xenograft; SGC-7901, 25 mg/kg twice a day per oral gavage, day of study termination (Table S2)", "value": 95, "unit": "%"}, {"measurement": "Body weight changes%", "setting": "SGC-7901 xenograft; SGC-7901, 25 mg/kg twice a day per oral gavage, before vs after treatment", "value": -18, "unit": "%"}, {"measurement": "Tumor Regression", "setting": "SGC-7901 xenograft; SGC-7901, 25 mg/kg twice a day per oral gavage, mice with regression/group", "value": "2/10"}, {"measurement": "percentage of body weight loss", "setting": "SGC-7901 xenograft; SGC-7901 model, 25 mg/kg twice daily per oral, termination day", "value": "exceeded 15%"}, {"measurement": "Final TGI%", "setting": "HGC-27 xenograft; day of study termination", "value": 83, "unit": "%"}, {"measurement": "Body weight changes%", "setting": "HGC-27 xenograft; before vs after treatment", "value": -5.5, "unit": "%"}, {"measurement": "Tumor Regression", "setting": "HGC-27 xenograft; mice with regression/group", "value": "0/10"}, {"measurement": "Final TGI%", "setting": "BEL-7404 xenograft; [3]", "value": 75, "unit": "%"}, {"measurement": "Body weight changes%", "setting": "BEL-7404 xenograft; before vs after treatment", "value": -4.2, "unit": "%"}, {"measurement": "Tumor Regression", "setting": "BEL-7404 xenograft; mice with regression/group", "value": "0/10"}, {"measurement": "Final TGI%", "setting": "BEL-7402 xenograft; BEL-7402, 25 mg/kg twice a day per oral gavage, day of study termination", "value": 83, "unit": "%"}, {"measurement": "Body weight changes%", "setting": "BEL-7402 xenograft; BEL-7402, 25 mg/kg twice a day per oral gavage, before vs after treatment", "value": -16, "unit": "%"}, {"measurement": "Tumor Regression", "setting": "BEL-7402 xenograft; BEL-7402, 25 mg/kg twice a day per oral gavage, mice with regression/group", "value": "1/10"}, {"measurement": "percentage of body weight loss", "setting": "BEL-7402 xenograft; BEL-7402 model, 25 mg/kg twice daily per oral, termination day", "value": "exceeded 15%"}, {"measurement": "Final TGI%", "setting": "BGC-823 xenograft; [3]", "value": 82, "unit": "%"}, {"measurement": "Body weight changes%", "setting": "BGC-823 xenograft; before vs after treatment", "value": -3.5, "unit": "%"}, {"measurement": "Tumor Regression", "setting": "BGC-823 xenograft; mice with regression/group", "value": "0/10"}]}
{"smiles": "CNC(=O)c1cc(Oc2ccc(NC(=O)Nc3ccc(Cl)c(C(F)(F)F)c3)c(F)c2)ccn1", "note": "[regorafenib]", "values": [{"measurement": "IC50", "setting": "Ret", "value": 1.5, "unit": "nM"}, {"measurement": "IC50", "setting": "KIT", "value": 7, "unit": "nM"}]}
